In patent publication US8802673B2, “Heterocyclic amine derivatives” (Hoffmann-La Roche Inc, priority 2011, dated 2014):

Experiments:
[1] = molecular target: rat TAAR1 (Rattus norvegicus (Rat), UniProt Q923Y9); assay: Radioligand binding assay on rat TAAR1; conditions: rat TAAR1 (second value of the cell), HEK-293 membranes; read-out: Ki (μM) mouse/rat
Method: (§1) Construction of TAAR Expression Plasmids and Stably Transfected Cell Lines
(§2) For the construction of expression plasmids the coding sequences of human, rat and mouse TAAR 1 were amplified from genomic DNA essentially as described by Lindemann et al.. The Expand High Fidelity PCR System (Roche Diagnostics) was used with 1.5 mM Mg^2+ and purified PCR products were cloned into pCR2.1-TOPO cloning vector (Invitrogen) following the instructions of the manufacturer. PCR products were subcloned into the pIRESneo2 vector (BD Clontech, Palo Alto, Calif.), and expression vectors were sequence verified before introduction in cell lines.
(§3) HEK293 cells (ATCC #CRL-1573) were cultured essentially as described by Lindemann et al. (2005). For the generation of stably transfected cell lines HEK293 cells were transfected with the pIRESneo2 expression plasmids containing the TAAR coding sequences (described above) with Lipofectamine 2000 (Invitrogen) according to the instructions of the manufacturer, and 24 hrs post transfection the culture medium was supplemented with 1 mg/ml G418 (Sigma, Buchs, Switzerland). After a culture period of about 10 d clones were isolated, expanded and tested for responsiveness to trace amines (all compounds purchased from Sigma) with the cAMP Biotrak Enzyme immunoassay (EIA) System (Amersham) following the non-acetylation EIA procedure provided by the manufacturer.
Radioligand Binding Assay on Rat TAAR1
Membrane Preparation and Radioligand Binding
(§4) HEK-293 cells stably expressing rat TAAR1 were maintained at 37° C. and 5% CO2 in DMEM high glucose medium, containing fetal calf serum (10%, heat inactivated for 30 min at 56° C.), penicillin/streptomycin (1%), and 375 μg/ml geneticin (Gibco). Cells were released from culture flasks using trypsin/EDTA, harvested, washed twice with ice-cold PBS (without Ca^2+ and Mg^2+), pelleted at 1,000 rpm for 5 min at 4° C., frozen and stored at −80° C. Frozen pellets were suspended in 20 ml HEPES-NaOH (20 mM, pH 7.4) containing 10 mM EDTA and homogenized with a Polytron (PT 6000, Kinematica) at 14,000 rpm for 20 s. The homogenate was centrifuged at 48,000×g for 30 min at 4° C. Subsequently, the supernatant was removed and discarded, and the pellet resuspended in 20 ml HEPES-NaOH (20 mM, pH 7.4) containing 0.1 mM EDTA using the Polytron (20 s at 14,000 rpm). This procedure was repeated and the final pellet resuspended in HEPES-NaOH containing 0.1 mM EDTA and homogenized using the Polytron. Typically, aliquots of 2 ml membrane portions were stored at −80° C. With each new membrane batch the dissociation constant (Kd) was determined via a saturation curve. […] All compounds were tested at a broad range of concentrations (10 pM to 10 μM) in duplicates. […] The 96 deep well plates were incubated for 1 hr at 4° C. Incubations were terminated by rapid filtration through Unifilter-96 plates (Packard Instrument Company) and glass filters GF/C (Perkin Elmer) presoaked for 1 hr in polyethylenimine (0.3%) and washed 3 times with 1 ml of cold binding buffer. After addition of 45 μl of Microscint 40 (PerkinElmer) the Unifilter-96 plate was sealed and after 1 hr the ratioactivity counted using a TopCount Microplate Scintillation Counter (Packard Instrument Company).

[2] = molecular target: mouse TAAR1 (Mus musculus (Mouse), UniProt Q923Y8); assay: Radioligand binding assay on mouse TAAR1; conditions: mouse TAAR1 (first value of the cell), HEK-293 membranes; read-out: Ki (μM) mouse/rat
Method: as §1, §2, §3
Radioligand Binding Assay on Mouse TAAR1
Membrane Preparation and Radioligand Binding.
as §4, with “expressing mouse” for “expressing rat”

Chain of rat TAAR1 (Q923Y9 whole entry): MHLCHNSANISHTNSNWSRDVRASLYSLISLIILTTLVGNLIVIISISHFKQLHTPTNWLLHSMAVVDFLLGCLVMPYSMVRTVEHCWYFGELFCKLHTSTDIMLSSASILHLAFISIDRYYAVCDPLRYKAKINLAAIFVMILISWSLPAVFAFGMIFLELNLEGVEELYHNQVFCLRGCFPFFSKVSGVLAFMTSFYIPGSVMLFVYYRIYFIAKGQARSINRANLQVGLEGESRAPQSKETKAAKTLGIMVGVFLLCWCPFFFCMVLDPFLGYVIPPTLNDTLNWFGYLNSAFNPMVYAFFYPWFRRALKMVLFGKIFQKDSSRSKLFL
Chain of mouse TAAR1 (Q923Y8 whole entry): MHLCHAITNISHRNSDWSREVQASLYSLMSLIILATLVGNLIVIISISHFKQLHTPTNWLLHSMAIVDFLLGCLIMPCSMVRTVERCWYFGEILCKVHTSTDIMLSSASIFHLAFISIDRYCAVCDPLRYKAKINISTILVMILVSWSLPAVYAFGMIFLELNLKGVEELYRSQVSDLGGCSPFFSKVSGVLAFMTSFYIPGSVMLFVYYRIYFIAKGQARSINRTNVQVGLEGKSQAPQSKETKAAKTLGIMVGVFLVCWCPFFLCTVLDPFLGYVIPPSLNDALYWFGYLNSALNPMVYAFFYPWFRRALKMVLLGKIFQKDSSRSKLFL

Ki [1] [µM] | Ki [2] [µM] | SMILES
0.0056 | 0.0029 | CCc1cnc(Nc2ccc(C3CNCCO3)cc2F)nc1 (racemic) [Example 97, (RS)-5-Ethyl-N-(2-fluoro-4-(morpholin-2-yl)phenyl)pyrimidin-2-amine]
0.0893 | 0.0181 | Clc1ccc(CNc2ccc(C3CNCCO3)cc2)cc1 (racemic) [Example 9, (RS)-(4-Chloro-benzyl)-(4-morpholin-2-yl-phenyl)-amine]
0.188 | 0.0026 | Fc1cc(Nc2ccc([C@H]3CNCCO3)cc2)cnc1Cl [Example 40, (S)-6-Chloro-5-fluoro-N-(4-(morpholin-2-yl)phenyl)pyridin-3-amine]
0.0325 | 0.0005 | Clc1ccc(Nc2ccc(C3CNCCO3)cc2)cc1 (racemic) [Example 8, (RS)-(4-Chloro-phenyl)-(4-morpholin-2-yl-phenyl)-amine]
0.232 | 0.0196 | Clc1ccc(Nc2ccc(C3CNCCO3)cn2)nc1 (racemic) [Example 90, (RS)-5-Chloro-N-(5-(morpholin-2-yl)pyridin-2-yl)pyridin-2-amine]
0.009 | 0.0024 | c1cc([C@@H]2CNCCO2)ccc1Nc1ncc(C2CC2)cn1 [Example 86, (5-Cyclopropyl-pyrimidin-2-yl)-((R)-4-morpholin-2-yl-phenyl)-amine]
0.0035 | 0.003 | Fc1cc(Nc2nccc(OCC(F)(F)F)n2)ccc1[C@@H]1CNCCO1 [Example 208, (R)—N-(3-Fluoro-4-(morpholin-2-yl)phenyl)-4-(2,2,2-trifluoroethoxy)pyrimidin-2-amine]
0.0045 | 0.0012 | Brc1cccc2nc(Nc3ccc([C@H]4CNCCO4)cc3)ccc12 [Example 53, (S)-5-Bromo-N-(4-(morpholin-2-yl)phenyl)quinolin-2-amine]
0.22 | 0.0171 | CCc1cnc(Nc2ccc([C@H]3CNCCO3)cc2)nc1C [Example 72, (5-Ethyl-4-methyl-pyrimidin-2-yl)-((S)-4-morpholin-2-yl-phenyl)-amine]
1.1 | 0.138 | Clc1ncc(Cl)c(Nc2ccc([C@H]3CNCCO3)cc2)n1 [Example 186, (S)-2,5-Dichloro-N-(4-(morpholin-2-yl)phenyl)pyrimidin-4-amine]
0.0544 | 0.0011 | Clc1ccc(Nc2ccc([C@H]3CNCCO3)cc2)nc1 [Example 38, (5-Chloro-pyridin-2-yl)-((S)-4-morpholin-2-yl-phenyl)-amine]
0.105 | 0.0041 | Clc1cnc(Nc2ccc([C@H]3CNCCO3)cc2)nc1 [Example 104, (S)-5-Chloro-N-(4-(morpholin-2-yl)phenyl)pyrimidin-2-amine]
1.06 | 0.0667 | COCCOc1cnc(Nc2ccc([C@@H]3CNCCO3)cc2)nc1 [Example 139]
0.228 | 0.0141 | O=[N+]([O-])c1cnc(Nc2ccc([C@H]3CNCCO3)cc2)nc1 [Example 75, ((S)-4-Morpholin-2-yl-phenyl)-(5-nitro-pyrimidin-2-yl)-amine]
0.0041 | 0.0032 | CCCc1cnc(Nc2ccc(C3CNCCO3)cc2F)nc1 (racemic) [Example 101, (RS)-(2-Fluoro-4-morpholin-2-yl-phenyl)-(5-propyl-pyrimidin-2-yl)-amine]
0.0233 | 0.0015 | FC(F)(F)c1ccc(Nc2ccc([C@H]3CNCCO3)cc2)nc1 [Example 11, (S)—N-(4-(Morpholin-2-yl)phenyl)-5-(trifluoromethyl)pyridin-2-amine]
0.0216 | 0.0062 | Fc1cc(C2CNCCO2)ccc1Nc1ncc(Cl)cn1 (racemic) [Example 96, (RS)-5-Chloro-N-(2-fluoro-4-(morpholin-2-yl)phenyl)pyrimidin-2-amine]
0.0026 | 0.0037 | FC(F)(F)COc1cnc(Nc2ccc([C@@H]3CNCCO3)cc2)nc1 [Example 137, ((R)-4-Morpholin-2-yl-phenyl)-[5-(2,2,2-trifluoro-ethoxy)-pyrimidin-2-yl]-amine]
0.0298 | 0.0043 | Cc1cc(C(F)(F)F)nc(Nc2ccc([C@@H]3CNCCO3)cc2)n1 [Example 178, (4-Methyl-6-trifluoromethyl-pyrimidin-2-yl)-((R)-4-morpholin-2-yl-phenyl)-amine]
1.35 | 0.112 | Cc1cc([C@H]2CNCCO2)ccc1Nc1ncc(C(F)(F)F)cn1 [Example 167, ((S)-2-Methyl-4-morpholin-2-yl-phenyl)-(5-trifluoromethyl-pyrimidin-2-yl)-amine]
0.0299 | 0.0028 | c1ccc2nc(Nc3ccc([C@@H]4CNCCO4)cc3)ncc2c1 [Example 177, ((R)-4-Morpholin-2-yl-phenyl)-quinazolin-2-yl-amine]
0.14 | 0.0046 | c1cc(C2CNCCO2)ccc1Nc1ccn(CC2CC2)n1 (racemic) [Example 146, (RS)-(1-Cyclopropylmethyl-1H-pyrazol-3-yl)-(4-morpholin-2-yl-phenyl)-amine]
0.188 | 0.0096 | Fc1cc(Cl)ccc1CNc1ccc([C@H]2CNCCO2)cc1 [Example 35, (4-Chloro-2-fluoro-benzyl)-((S)-4-morpholin-2-yl-phenyl)-amine]
0.0785 | 0.122 | FC(F)(F)C(Nc1ccc(CCC2CCCNC2)cc1)c1ccc(Cl)cc1 (racemic) [Example 4, (RS)-[1-(4-Chloro-phenyl)-2,2,2-trifluoro-ethyl]-[(RS)-4-(2-piperidin-3-yl-ethyl)-phenyl]-amine]
0.004 | 0.0049 | Fc1cc(Nc2ncc(C(F)(F)F)cn2)ccc1[C@@H]1CNCCO1 [Example 196, (R)—N-(3-Fluoro-4-(morpholin-2-yl)phenyl)-5-(trifluoromethyl)pyrimidin-2-amine]

SMILES | Ki [1] [µM] | Ki [2] [µM]
CCc1ccc(CNc2ccc([C@H]3CNCCO3)cc2)cc1 [Example 36, (4-Ethyl-benzyl)-((S)-4-morpholin-2-yl-phenyl)-amine] | 0.163 | 0.0288
Clc1cnc(Nc2ccc([C@@H]3CNCCO3)cc2)cn1 [Example 205, (R)-5-Chloro-N-(4-(morpholin-2-yl)phenyl)pyrazin-2-amine] | 0.162 | 0.0026
Fc1cc(Cl)ccc1Nc1ccc([C@H]2CNCCO2)cc1 [Example 59, (S)-4-Chloro-2-fluoro-N-(4-(morpholin-2-yl)phenyl)aniline] | 0.207 | 0.0049
